Test [1] concerns the target T1, recombinant human 5-HT6 receptor (Homo sapiens, UniProt P50406).
T1 construct: expressed in transfected cells
Nature of the test: Radioligand binding, [3H]LSD competition in HEK293 cell membranes. The following applies: [3H]LSD displacement, pH 7.4 at 37° C., read-out: pKi for the 5-HT6 receptor (converted). As for the experimental part: (§1) The binding activity of compounds of this invention in vitro was determined as follows. Duplicate determinations of 5-HT6 ligand affinity were made by competing for binding of [^3H]LSD in cell membranes derived from HEK293 cells stably expressing recombinant human 5-HT6 receptor. Duplicate determinations of 5-HT2A ligand affinity were made by competing for binding of [^3H]Ketanserin (3-(2-(4-(4-fluorobenzoyl)piperidinol)ethyl)-2,4(1H,3H)-quinazolinedione) in cell membranes derived from CHO-Ki cells stably expressing recombinant human 5-HT2A receptor. Membranes were prepared from HEK 293 cell lines by the method described by Monsma et al., Molecular Pharmacology, Vol. 43 pp. 320-327 (1993), and from CHO-K1 cell lines as described by Bonhaus et al., Br J Pharmacol. June; 115(4):622-8 (1995).
(§2) For estimation of affinity at the 5-HT6 receptor, all determinations were made in assay buffer containing 50 mM Tris-HCl, 10 mM MgSO4, 0.5 mM EDTA, 1 mM ascorbic acid, pH 7.4 at 37° C., in a 250 microliter reaction volume. […]
(§3) Assay tubes containing [^3H] […] LSD or [^3H]Ketanserin were determined as radioactive counts per minute using Packard TopCount.
(§4) Displacement of [^3H]LSD or [^3H]Ketanserin from the binding sites was quantified by fitting concentration-binding data to a 4-parameter logistic equation: […]

In test [2] the target is T2, recombinant human 5-HT2A receptor (Homo sapiens, UniProt P28223).
T2 construct: expressed in transfected cells
T2 sequence (P28223 whole entry): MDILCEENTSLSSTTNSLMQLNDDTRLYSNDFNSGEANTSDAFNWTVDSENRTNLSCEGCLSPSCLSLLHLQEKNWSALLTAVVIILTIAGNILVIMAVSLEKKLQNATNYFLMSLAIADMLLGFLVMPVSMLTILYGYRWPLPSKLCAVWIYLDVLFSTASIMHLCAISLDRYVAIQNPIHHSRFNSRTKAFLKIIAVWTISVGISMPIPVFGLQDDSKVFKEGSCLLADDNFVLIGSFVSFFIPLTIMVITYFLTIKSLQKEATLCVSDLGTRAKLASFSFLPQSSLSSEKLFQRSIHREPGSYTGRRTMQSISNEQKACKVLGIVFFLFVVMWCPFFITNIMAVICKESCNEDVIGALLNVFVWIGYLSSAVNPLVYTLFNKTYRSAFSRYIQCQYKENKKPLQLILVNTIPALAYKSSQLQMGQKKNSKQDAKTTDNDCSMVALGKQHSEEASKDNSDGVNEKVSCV
Nature of the test: Radioligand binding, [3H]Ketanserin competition in CHO-K1 cell membranes. To be noted: [3H]Ketanserin displacement, pH 7.4 at 32° C., read-out: pKi for the 5-HT2A receptor (converted). As for the experimental part:
as §1, §2, §3, §4

The values below come from patent US7741326B2, “Indole and benzofuran 2-carboxamide derivatives and uses thereof” (Roche Palo Alto LLC, priority 2006, dated 2010).

T1 sequence (P50406 whole entry): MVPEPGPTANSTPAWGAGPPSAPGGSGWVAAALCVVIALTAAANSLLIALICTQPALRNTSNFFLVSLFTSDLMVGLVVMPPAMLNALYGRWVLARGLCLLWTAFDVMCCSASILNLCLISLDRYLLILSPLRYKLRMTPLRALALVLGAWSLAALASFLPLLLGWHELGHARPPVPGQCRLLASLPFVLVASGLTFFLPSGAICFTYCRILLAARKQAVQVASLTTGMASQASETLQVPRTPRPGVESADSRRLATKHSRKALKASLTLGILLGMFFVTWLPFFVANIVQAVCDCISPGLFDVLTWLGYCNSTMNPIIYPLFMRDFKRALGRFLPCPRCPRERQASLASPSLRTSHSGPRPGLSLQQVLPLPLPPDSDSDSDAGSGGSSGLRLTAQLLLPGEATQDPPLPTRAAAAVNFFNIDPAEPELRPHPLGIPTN

Consider `CNC(=O)c1cc2c(N3CCNCC3)cccc2n1Cc1cccc(F)c1` [Compound 26, 1-(3-Fluoro-benzyl)-4-piperazin-1-yl-1H-indole-2-carboxylic acid methylamide], for which, in test [1], the Ki was about 0.126 nM.
`Cc1cc(N2CCNCC2)c2oc(C(N)=O)c(Cc3cccc(F)c3)c2c1` [Compound 31, 3-(3-Fluoro-benzyl)-5-methyl-7-piperazin-1-yl-benzofuran-2-carboxylic acid amide]: the Ki in test [2] is about 1.23 nM.
